{
  "source": "patent US8790712B2",
  "about": "“Constitutional function-improving agents” (Cosmo Oil Co., Ltd., priority 2004, dated 2014)",
  "key": {"[1]": {"system": "thymus cells", "test": "Thymus weight and number of thymus cells of aged mice (Example 2)", "type": "in vivo, mouse", "conditions": "10 mg/kg orally once a day for 7 days; for The number of cells: thymus", "experimental": "Mice (35 to 45 weeks old, BALB/cAJc1) preliminary raised for 1 week were injected with 10 mg of ALA hydrochloride per 1 kg mouse body weight once a day for 7 days continuously. ALA hydrochloride was adjusted to a concentration of […] with distilled water and orally administered to the mice. After the test, each mouse was sacrificed and the weight of its thymus and the number of cells were measured. In addition, a subset test of lymphocytes was carried out using the obtained cells. The test was carried out using 5 mice per 1 plot, and their values were shown by average value. […] Also, since the cell of CD4-CD8+ was increased in the ALA-treated plot based on the subset test, it was confirmed that the cytotoxic T cell increases after its future differentiation, so that its immunological function improving ability was shown (Table 3). In addition, photographs of the thymus of untreated plot (un-administered group) and the thymus of ALA-treated plot (ALA-treated group) are shown in FIG. 1."}, "[2]": {"system": "LW·D piglets", "test": "Body weight gain of piglets fed ALA hydrochloride for 6 weeks (Example 8)", "type": "in vivo, pig", "text": "LW·D piglets produced on the same day at a swinery were purchased 3 times, each time for 14 animals (each 7 animals of castrates and females), and subjected to preliminary raising for 9 to 12 days to confirm that their healthy state is normal, and then 12 animals (each 6 animals of castrates and females) were selected for each time and used in the test. The test plots were set to a total of 3 plots of a control plot in which a control feed (Table 8) without adding ALA hydrochloride is provided, and 2 test plots in which 10 ppm or 50 ppm of ALA hydrochloride is added to the feed and provided. The piglets to be tested were divided into 3 groups, each group including 4 animals (each 2 animals of castrates and females), in such a manner that distribution of body weight became almost uniform, and 1 groups was allotted to each plot and raised for 6 weeks. The swinery used in the test was an open type swinery in which a pig chamber of 1.8×2.7 m concrete floor was arranged in a row of 14 chambers, and group feeding was carried out using adjoining 3 pig chambers for each block. Rice straws were used as the bedding. A warm-keeping box was arranged in each pig chamber for 3 weeks after start of the test. The feed and drinking water were constantly provided. Body weight gain was calculated by measuring individual body weight at intervals of 1 week from the start of the test."}, "[3]": {"system": "ddY-N mouse", "test": "Body weight gain of young mice over 28 days of administration (Example 7)", "type": "in vivo", "experimental": "A total of 120 animals (60 animals for each of male and female) of about 4 weeks old of ddY-N mouse produced by Nippon Ikagaku Dobutsu Shizai Kenkyusho Co., Ltd. was purchased and subjected to 1 week of medical inspection to confirm that their healthy state is normal, and then used in the test. The test plots were set to a total of 4 plots of a control plot in which distilled water for injection is administered into the stomach using a stomach tube at a ratio of 10 ml per 1 kg body weight of the mouse to be tested for 28 continuous days, and 3 test plots in which ALA hydrochloride is administered in the same manner at respective ratios of 5 mg, 10 mg and 25 mg per 1 kg body weight of the mouse to be tested. The mice to be tested were divided into 12 groups, 1 group including 5 males or females, in such a manner that average body weight of each group became almost uniform, and 3 groups of males or females were allotted to each plot and raised for 28 days. The mice to be tested were raised by each group using a series of five stainless steel cages arranged in a raising room set to a room temperature of 23.0±2.0° C. and an irradiation time of 12 hours/day. Body weight gain was calculated by measuring individual body weight at intervals of 1 week from the start of the test."}, "[4]": {"system": "broiler primary chicks (Chunky)", "test": "Body weight of broiler chicks fed ALA hydrochloride for 7 weeks (Example 9)", "type": "in vivo, chick", "text": "A total of 300 chicks, 150 chicks for females and males respectively, of broiler primary chicks (Chunky) were purchased. After the purchase, chicks having abnormality (weakness or dwarf) were excluded, and the rest were equipped with wing belts for individual identification and their body weights were individually measured. […] Using 15 female or male chicks (30 chicks in total) as 1 group, they were put into a Chick Gird arranged in a closed type barn, and warmed by arranging an infrared ray lamp for animal use. The Chick Gird was expanded along with the growth of chicks. The feed and drinking water were constantly provided. The test groups were set to a total of 3 groups containing a control group in which a control feed (a standard testing feed SDB No. 1 was used from the neonatal to 3 weeks old, or a standard testing feed SDB No. 2 from 3 weeks old to 7 weeks old, (both manufactured by Nippon Formula Feed Mfg Co., Ltd., Table 9) without adding ALA hydrochloride is provided, and 2 test groups of ALA-10 ppm treated group and ALA-50 ppm treated group in which 10 ppm or 50 ppm of ALA hydrochloride is added to the feed and provided, and 3 repetition plots were arranged for each group. The number of chicks to be tested in each test group was as shown in Table 10. The test period was set to 7 weeks (7 weeks old) from the neonatal (start of the added feed provision), and total body weight of females or males was measured for each repetition plot at the time of the neonatal and at intervals of 1 week thereafter. In addition, about 2 ml of blood was collected from a brachial vein (basilic vein) of each of 18 chicks (3 female or male chicks/repetition) of each group at 3 weeks old and 7 weeks old, and about 1.5 ml thereof was subjected to a coagulation preventing treatment using heparin-lithium salt and then the blood plasma was separated to inspect the items of LDH, GOT (AST), γ-GTP, ALP, total protein, albumin, globulin, total cholesterol, triglyceride, glucose, uric acid, total bilirubin, uric acid, creatinine, calcium and inorganic phosphorus."}, "[5]": {"conditions": "ALA-treated groups, 10 ppm or 50 ppm in feed, 7 weeks"}},
  "data": [
    {"compound": "NCC(=O)CCC(=O)O", "note": "[ALA, 5-aminolevulinic acid]", "values": [
      {"measurement": "Thymus", "setting": "[1]; female mice", "result": 0.044, "unit": "g"},
      {"measurement": "Thymus", "setting": "[1]; male mice", "result": 0.034, "unit": "g"},
      {"measurement": "The number of cells", "setting": "[1]; female mice", "result": "49.9 × 10^6"},
      {"measurement": "The number of cells", "setting": "[1]; male mice", "result": "22.0 × 10^6"},
      {"measurement": "Growth (growth curves, body weight gain)", "setting": "[2]; 10 ppm in feed", "result": "superior growth than the control plot"},
      {"measurement": "Growth (growth curves, body weight gain)", "setting": "[2]; 50 ppm in feed", "result": "superior growth than the control plot"},
      {"measurement": "Health state", "setting": "[2]; ALA-treated groups, 10 ppm or 50 ppm in feed", "result": "abnormal health state was not fund"},
      {"measurement": "Growth (growth curves, body weight gain)", "setting": "[3]; 10 mg/kg into the stomach for 28 days, compared with control, 5 mg/kg and 25 mg/kg plots, averages of males and females", "result": "superior growth than other 3 plots"},
      {"measurement": "Health state", "setting": "[3]; ALA-treated groups, 5, 10 and 25 mg/kg for 28 days", "result": "abnormal health state was not fund"},
      {"measurement": "Growth (g), body weight", "setting": "[4]; 10 ppm in feed, 1 week", "result": 166.3, "unit": "g"},
      {"measurement": "Growth (g), body weight", "setting": "[4]; 10 ppm in feed, 2 week", "result": 442.0, "unit": "g"},
      {"measurement": "Growth (g), body weight", "setting": "[4]; 10 ppm in feed, 3 week", "result": 817.2, "unit": "g"},
      {"measurement": "Growth (g), body weight", "setting": "[4]; 10 ppm in feed, 4 week", "result": 1402.7, "unit": "g"},
      {"measurement": "Growth (g), body weight", "setting": "[4]; 10 ppm in feed, 5 week", "result": 2063.9, "unit": "g"},
      {"measurement": "Growth (g), body weight", "setting": "[4]; 10 ppm in feed, 6 week", "result": 2736.4, "unit": "g"},
      {"measurement": "Growth (g), body weight", "setting": "[4]; 10 ppm in feed, 7 week", "result": 3420.9, "unit": "g"},
      {"measurement": "Growth (g), body weight", "setting": "[4]; 10 ppm in feed, neonatal", "result": 37.8, "unit": "g"},
      {"measurement": "Growth (g), body weight", "setting": "[4]; 50 ppm in feed, 1 week", "result": 169.1, "unit": "g"},
      {"measurement": "Growth (g), body weight", "setting": "[4]; 50 ppm in feed, 2 week", "result": 436.8, "unit": "g"},
      {"measurement": "Growth (g), body weight", "setting": "[4]; 50 ppm in feed, 3 week", "result": 807.7, "unit": "g"},
      {"measurement": "Growth (g), body weight", "setting": "[4]; 50 ppm in feed, 4 week", "result": 1400.8, "unit": "g"},
      {"measurement": "Growth (g), body weight", "setting": "[4]; 50 ppm in feed, 5 week", "result": 2036.7, "unit": "g"},
      {"measurement": "Growth (g), body weight", "setting": "[4]; 50 ppm in feed, 6 week", "result": 2731.5, "unit": "g"},
      {"measurement": "Growth (g), body weight", "setting": "[4]; 50 ppm in feed, 7 week", "result": 3403.3, "unit": "g"},
      {"measurement": "Growth (g), body weight", "setting": "[4]; 50 ppm in feed, neonatal", "result": 37.7, "unit": "g"},
      {"measurement": "General conditions during the test period", "setting": "[4]; [5]", "result": "no abnormality was found in the general conditions"},
      {"measurement": "Raising ratio and pathologic autopsy findings", "setting": "[4]; [5]", "result": "an abnormality considered to be due to its addition was not found"}
    ]}
  ]
}
